Laboratory results published in patent US20260337156A1, “SOLUBILIZING COMPOUNDS” (Vivesto AB, priority 2022, published 2026).

Test: particle size and polydispersity index of drug micelles over time (ZetaSizer)
Format: physicochemical
Details: for change of particle size and polydispersity index over time: 0-24 h
Protocol: Micellar size was measured using a ZetaSizer from Malvern Panalytical.
(§1) A stock solution of docetaxel in methanol was mixed with a stock solution of compound 1 in a round bottom flask. The mixture was evaporated to dryness in a rotary evaporator. Final drying was performed in a desiccator to remove residual solvent. Hydration of the dried film was performed by adding water for injection (1.0 mL) to a concentration of 1 mg/mL of docetaxel. The resulting solution was filtered through a 0.22 μm sterile filter and further diluted with 0.9% sodium chloride solution to 0.5 mg/mL of docetaxel. […]
(§2) A stock solution of cyclosporin in methanol was mixed with a stock solution of compound 1 in a round bottom flask. The mixture was evaporated to dryness in a rotary evaporator. Final drying was performed in a desiccator to remove residual solvent. Hydration of the dried film was performed by adding water for injection (1.0 mL) to a concentration of 1 mg/mL of cyclosporin. The resulting solution was filtered through a 0.22 μm sterile filter and further diluted with 0.9% sodium chloride solution to 0.5 mg/mL of cyclosporin. The final weight ratio of cyclosporin to micelle forming agent was 1:3.
(§3) A stock solution of docetaxel in methanol was mixed with a stock solution of compound 3 in a round bottom flask. The mixture was evaporated to dryness in a rotary evaporator. Final drying was performed in a desiccator to remove residual solvent. Hydration of the dried film was performed by adding water for injection (1.0 mL) to a concentration of 1 mg/mL of docetaxel. The resulting solution was filtered through a 0.22 μm sterile filter and further diluted with 0.9% sodium chloride solution to 0.5 mg/mL of Docetaxel. The final weight ratio of docetaxel to micelle forming agent was 1:3.
as §2, with “compound 3” for “compound 1”
as §1, with “compound 4” for “compound 1”
as §3, with “compound 5” for “compound 3”, “of docetaxel.” for “of Docetaxel.”
A stock solution of cabazitaxel in methanol was mixed with a stock solution of compound 5 in a round bottom flask. The mixture was evaporated to dryness in a rotary evaporator. Final drying was performed in a desiccator to remove residual solvent. Hydration of the dried film was performed by adding water for injection (1.0 mL) to a concentration of 1 mg/mL of cabazitaxel. […]

[1] = docetaxel:compound 1:3, docetaxel 0.5 mg/mL
[2] = docetaxel:compound 1:3, docetaxel 0.5 mg/mL, time 0 h
[3] = docetaxel:compound 1:3, docetaxel 0.5 mg/mL, time 1 h
[4] = docetaxel:compound 1:3, docetaxel 0.5 mg/mL, time 2 h
[5] = docetaxel:compound 1:3, docetaxel 0.5 mg/mL, time 4 h
[6] = docetaxel:compound 1:3, docetaxel 0.5 mg/mL, time 6 h
[7] = docetaxel:compound 1:3, docetaxel 0.5 mg/mL, time 24 h
[8] = docetaxel:compound 1:5, docetaxel 0.5 mg/mL, time 0 h
[9] = docetaxel:compound 1:5, docetaxel 0.5 mg/mL, time 1 h
[10] = docetaxel:compound 1:5, docetaxel 0.5 mg/mL, time 2 h
[11] = docetaxel:compound 1:5, docetaxel 0.5 mg/mL, time 4 h
[12] = docetaxel:compound 1:5, docetaxel 0.5 mg/mL, time 6 h
[13] = docetaxel:compound 1:5, docetaxel 0.5 mg/mL, time 24 h
[14] = cabazitaxel:compound 1:3, cabazitaxel 0.5 mg/mL, time 0 h
[15] = cabazitaxel:compound 1:3, cabazitaxel 0.5 mg/mL, time 1 h
[16] = cabazitaxel:compound 1:3, cabazitaxel 0.5 mg/mL, time 2 h
[17] = cabazitaxel:compound 1:3, cabazitaxel 0.5 mg/mL, time 4 h
[18] = cabazitaxel:compound 1:3, cabazitaxel 0.5 mg/mL, time 6 h
[19] = cabazitaxel:compound 1:3, cabazitaxel 0.5 mg/mL, time 24 h

In the case of `COc1cc(C)c(/C=C/C(C)=C/C=C/C(C)=C/C(=O)N(C)[C@H]2CC[C@H](CS(=O)(=O)[O-])CC2)c(C)c1C.[Na+]` [Compound 7], the “change of particle size and polydispersity index over time” value [1] is reported as “Small variations in the particle size and the polydispersity index over time were noted”, the Particle size [2] is reported as 100.8 nm and the Polydispersity index [2] is reported as 0.23. For the same compound, the Particle size [3] was 97.60 nm, the Polydispersity index [3] was 0.24 and the Particle size [4] was 97.60 nm. For the same compound, the Polydispersity index [4] was 0.24, the Particle size [5] was 96.90 nm and the Polydispersity index [5] was 0.25. For the same compound, the Particle size [6] was 99.12 nm, the Polydispersity index [6] was 0.25 and the Particle size [7] was 96.76 nm. The Polydispersity index [7] was 0.26.
In the case of `COc1cc(C)c(/C=C/C(C)=C/C=C/C(C)=C/C(=O)N(CCO)Cc2ccc(N)cc2S(=O)(=O)[O-])c(C)c1C.[Na+]` [Compound 10], the “change of particle size and polydispersity index over time” value (docetaxel:compound 1:5, docetaxel 0.5 mg/mL) is reported as “Increase in the particle size and minor decrease the polydispersity index over time were noted”, the Particle size [8] is reported as 52.29 nm and the Polydispersity index [8] is reported as 0.16. The Particle size [9] was 62.51 nm, the Polydispersity index [9] was 0.13 and the Particle size [10] was 70.07 nm. The Polydispersity index [10] was 0.12, the Particle size [11] was 78.98 nm and the Polydispersity index [11] was 0.12. For the same compound, the Particle size [12] was 85.10 nm, the Polydispersity index [12] was 0.10 and the Particle size [13] was 107.4 nm. For the same compound, the Polydispersity index [13] was 0.10.
For `COc1cc(C)c(/C=C/C(C)=C/C=C/C(C)=C/C(=O)N(CCS(=O)(=O)[O-])CC(N)=O)c(C)c1C.[Na+]` [Compound 5], the “change of particle size and polydispersity index over time” value (cabazitaxel:compound 1:3, cabazitaxel 0.5 mg/mL) was “Small variations in the particle size and the polydispersity index over time were noted”, the Particle size [14] was 93.83 nm and the Polydispersity index [14] was 0.19. The Particle size [15] was 98.08 nm, the Polydispersity index [15] was 0.20 and the Particle size [16] was 102.2 nm. The Polydispersity index [16] was 0.21, the Particle size [17] was 106.6 nm and the Polydispersity index [17] was 0.20. It also gave a Particle size [18] of 108.8 nm, a Polydispersity index [18] of 0.21 and a Particle size [19] of 83.42 nm. The Polydispersity index [19] was 0.39, the “change of particle size and polydispersity index over time” value [1] was “An increase in the particle size and very small variations of the polydispersity index over time were noted” and the Particle size [2] was 59.40 nm. It also gave a Polydispersity index [2] of 0.17, a Particle size [3] of 66.24 nm and a Polydispersity index [3] of 0.16. The Particle size [4] was 75.40 nm, the Polydispersity index [4] was 0.14 and the Particle size [5] was 82.19 nm. It also gave a Polydispersity index [5] of 0.13, a Particle size [6] of 87.95 nm and a Polydispersity index [6] of 0.13. It also gave a Particle size [7] of 105.7 nm and a Polydispersity index [7] of 0.14.
For `COc1cc(C)c(/C=C/C(C)=C/C=C/C(C)=C/C(=O)N2CCC(CCS(=O)(=O)[O-])CC2)c(C)c1C.[Na+]` [Compound 8], the “change of particle size and polydispersity index over time” value [1] was “Increase in the particle size and small variations the polydispersity index over time were noted”, the Particle size [2] was 55.38 nm and the Polydispersity index [2] was 0.20. The Particle size [3] was 70.34 nm, the Polydispersity index [3] was 0.15 and the Particle size [4] was 75.90 nm. For the same compound, the Polydispersity index [4] was 0.13, the Particle size [5] was 83.10 nm and the Polydispersity index [5] was 0.11. For the same compound, the Particle size [6] was 87.94 nm, the Polydispersity index [6] was 0.12 and the Particle size [7] was 105.0 nm. It also gave a Polydispersity index [7] of 0.16.
In the case of `COc1cc(C)c(/C=C/C(C)=C/C=C/C(C)=C/C(=O)N2CCN(c3ccc(S(=O)(=O)[O-])cc3)CC2)c(C)c1C.[Na+]` [Compound 6], the “change of particle size and polydispersity index over time” value [1] is reported as “Small variations in the particle size and the polydispersity index over time were noted”, the Particle size [2] is reported as 61.37 nm and the Polydispersity index [2] is reported as 0.22. It also gave a Particle size [3] of 61.27 nm, a Polydispersity index [3] of 0.28 and a Particle size [4] of 64.21 nm. For the same compound, the Polydispersity index [4] was 0.28, the Particle size [5] was 67.34 nm and the Polydispersity index [5] was 0.28. It also gave a Particle size [6] of 69.84 nm, a Polydispersity index [6] of 0.28 and a Particle size [7] of 66.18 nm. For the same compound, the Polydispersity index [7] was 0.38.
With `COc1cc(C)c(/C=C/C(C)=C/C=C/C(C)=C/C(=O)N2CCN(C(=O)c3ccc(S(=O)(=O)[O-])cc3)CC2)c(C)c1C.[K+]` [Compound 9] the “change of particle size and polydispersity index over time” value [1] was “Increase in the particle size and small variations the polydispersity index over time were noted”, the Particle size [2] was 89.91 nm and the Polydispersity index [2] was 0.20. It also gave a Particle size [3] of 97.93 nm, a Polydispersity index [3] of 0.20 and a Particle size [4] of 103.8 nm. The Polydispersity index [4] was 0.20, the Particle size [5] was 113.0 nm and the Polydispersity index [5] was 0.17. For the same compound, the Particle size [6] was 118.6 nm, the Polydispersity index [6] was 0.17 and the Particle size [7] was 122.0 nm. The Polydispersity index [7] was 0.22.
